Each compound was assayed against Proto-oncogene tyrosine-protein kinase receptor Ret (Homo sapiens, UniProt P07949) (assay: Inhibition of RET (unknown origin) pre-incubated for 60 mins before substrate addition in presence of 9 uM ATP by microfluidic assay).
Sequence of Proto-oncogene tyrosine-protein kinase receptor Ret (P07949 whole entry): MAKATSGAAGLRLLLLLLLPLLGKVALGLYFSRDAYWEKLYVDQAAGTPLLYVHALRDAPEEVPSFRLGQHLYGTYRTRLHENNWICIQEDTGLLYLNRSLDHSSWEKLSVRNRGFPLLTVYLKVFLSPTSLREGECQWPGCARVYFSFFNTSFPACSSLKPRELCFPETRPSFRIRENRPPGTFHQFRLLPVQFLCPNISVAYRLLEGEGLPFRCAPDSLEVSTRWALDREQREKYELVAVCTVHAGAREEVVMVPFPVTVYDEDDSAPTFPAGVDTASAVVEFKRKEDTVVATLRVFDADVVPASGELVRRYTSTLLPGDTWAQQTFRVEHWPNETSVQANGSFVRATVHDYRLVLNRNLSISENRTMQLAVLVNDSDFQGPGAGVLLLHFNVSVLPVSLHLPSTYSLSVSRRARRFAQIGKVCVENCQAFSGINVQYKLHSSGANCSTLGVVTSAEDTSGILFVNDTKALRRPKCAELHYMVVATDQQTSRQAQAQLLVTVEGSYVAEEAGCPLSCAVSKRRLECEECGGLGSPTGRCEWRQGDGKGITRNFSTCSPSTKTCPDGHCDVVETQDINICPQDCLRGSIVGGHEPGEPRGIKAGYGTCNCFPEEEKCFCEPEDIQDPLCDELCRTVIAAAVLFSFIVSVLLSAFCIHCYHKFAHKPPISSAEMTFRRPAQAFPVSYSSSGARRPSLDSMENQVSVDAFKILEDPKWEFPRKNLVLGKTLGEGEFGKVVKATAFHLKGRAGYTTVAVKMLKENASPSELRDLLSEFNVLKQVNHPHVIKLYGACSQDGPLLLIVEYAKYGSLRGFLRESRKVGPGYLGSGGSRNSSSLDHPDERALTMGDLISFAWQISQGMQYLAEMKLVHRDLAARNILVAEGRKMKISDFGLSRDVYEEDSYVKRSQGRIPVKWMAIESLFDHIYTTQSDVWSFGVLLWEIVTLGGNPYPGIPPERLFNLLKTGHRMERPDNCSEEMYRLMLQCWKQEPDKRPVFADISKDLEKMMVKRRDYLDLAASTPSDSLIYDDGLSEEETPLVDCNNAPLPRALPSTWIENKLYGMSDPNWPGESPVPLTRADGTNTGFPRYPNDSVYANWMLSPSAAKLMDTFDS

IC50, > 100 µM:
O=C(Cc1ccc(-c2ccc3nccn3c2)cc1)Nc1cccc(Br)c1
Cc1cccc(NC(=O)Cc2ccc(-c3ccc4nccn4c3)cc2)c1
O=C(Cc1ccc(-c2ccc3nccn3c2)cc1)Nc1cccc(F)c1

— ChEMBL document CHEMBL3351388, “Identification of two novel RET kinase inhibitors through MCR-based drug discovery: design, synthesis and evaluation” (Eur J Med Chem, 2014)
